Reference: ChEMBL document CHEMBL5223117, “Synthesis and biological evaluation of novel N, N'-diarylurea derivatives as potent antibacterial agents against MRSA” (Bioorg Med Chem Lett, 2022)
In brackets after ≈: the same amount, converted by molar mass.

Experiments:
[1] = tested on: Staphylococcus aureus; experiment: Bactericidal activity against methicillin resistant Staphylococcus aureus ATCC 33591; format: functional
[2] = tested on: Staphylococcus aureus; experiment: Antibacterial activity against vancomycin intermediate and methicillin resistant Staphylococcus aureus ATCC 700699; format: functional
[3] = tested on: Staphylococcus aureus; experiment: Antibacterial activity against methicillin sensitive Staphylococcus aureus ATCC 33591; format: functional
[4] = tested on: Staphylococcus aureus; experiment: Antibacterial activity against methicillin sensitive Staphylococcus aureus 15; format: functional
[5] = tested on: Staphylococcus aureus; experiment: Selectivity ratio of MBC for bactericidal activity against methicillin resistant Staphylococcus aureus ATCC 33591 to MIC for antibacterial activity against methicillin resistant Staphylococcus aureus ATCC 33591; format: functional
[6] = tested on: Staphylococcus aureus; experiment: Selectivity ratio of MBC for bactericidal activity against methicillin resistant Staphylococcus aureus 16-30 to MIC for antibacterial activity against methicillin resistant Staphylococcus aureus 16-30; format: functional
[7] = tested on: Staphylococcus aureus; experiment: Antibacterial activity against methicillin sensitive Staphylococcus aureus 20-12; format: functional
[8] = tested on: Staphylococcus aureus; experiment: Selectivity ratio of MBC for bactericidal activity against methicillin resistant Staphylococcus aureus ATCC 43300 to MIC for antibacterial activity against methicillin resistant Staphylococcus aureus ATCC 43300; format: functional
[9] = Cytotoxicity against human HeLa cells by SRB assay; format: toxicity, cell-based
[10] = tested on: Enterococcus faecalis; experiment: Bactericidal activity against Vanomycin-resistant Enterococcus faecalis ATCC 51299; format: functional
[11] = Cytotoxicity against human HepG2 cells by SRB assay; format: toxicity, cell-based
[12] = tested on: Staphylococcus aureus; experiment: Antibacterial activity against methicillin resistant Staphylococcus aureus ATCC 33591; format: functional
[13] = tested on: Staphylococcus aureus; experiment: Bactericidal activity against methicillin resistant Staphylococcus aureus ATCC 43300; format: functional
[14] = tested on: Enterococcus faecium; experiment: Selectivity ratio of MBC for bactericidal activity against Vanomycin-resistant Enterococcus faecium ATCC 700221 to MIC for antibacterial activity against Vanomycin-resistant Enterococcus faecium ATCC 700221; format: functional
[15] = tested on: Staphylococcus aureus; experiment: Antibacterial activity against methicillin resistant Staphylococcus aureus 16-30; format: functional
[16] = tested on: Staphylococcus aureus; experiment: Antibacterial activity against methicillin resistant Staphylococcus aureus 18-2; format: functional
[17] = tested on: Enterococcus faecium; experiment: Antibacterial activity against Vanomycin-resistant Enterococcus faecium 15-6; format: functional
[18] = tested on: Staphylococcus aureus; experiment: Selectivity ratio of MBC for bactericidal activity against vancomycin intermediate and methicillin resistant Staphylococcus aureus ATCC 700698 to MIC for antibacterial activity against vancomycin intermediate and methicillin resistant Staphylococcus aureus ATCC 700698; format: functional
[19] = tested on: Enterococcus faecium; experiment: Bactericidal activity against Vanomycin-resistant Enterococcus faecium ATCC 700221; format: functional
[20] = tested on: Staphylococcus aureus; experiment: Bactericidal activity against vancomycin intermediate and methicillin resistant Staphylococcus aureus ATCC 700698; format: functional
[21] = tested on: Staphylococcus aureus; experiment: Antibacterial activity against methicillin resistant Staphylococcus aureus ATCC 43300; format: functional
[22] = tested on: Enterococcus faecium; experiment: Antibacterial activity against Vanomycin-resistant Enterococcus faecium ATCC 700221; format: functional
[23] = tested on: Enterococcus faecalis; experiment: Antibacterial activity against Vanomycin-resistant Enterococcus faecalis ATCC 51575; format: functional
[24] = tested on: Staphylococcus epidermidis; experiment: Antibacterial activity against methicillin sensitive Staphylococcus epidermidis 17-13; format: functional
[25] = tested on: Staphylococcus aureus; experiment: Antibacterial activity against vancomycin intermediate and methicillin resistant Staphylococcus aureus ATCC 700698; format: functional
[26] = tested on: Staphylococcus aureus; experiment: Antibacterial activity against methicillin resistant Staphylococcus aureus 20-11; format: functional
[27] = tested on: Staphylococcus aureus; experiment: Bactericidal activity against methicillin resistant Staphylococcus aureus 16-30; format: functional
[28] = tested on: Enterococcus faecalis; experiment: Selectivity ratio of MBC for bactericidal activity against Vanomycin-resistant Enterococcus faecalis ATCC 51299 to MIC for antibacterial activity against Vanomycin-resistant Enterococcus faecalis ATCC 51299; format: functional
[29] = tested on: Staphylococcus epidermidis; experiment: Antibacterial activity against methicillin sensitive Staphylococcus epidermidis ATCC 12228; format: functional
[30] = tested on: Staphylococcus epidermidis; experiment: Antibacterial activity against methicillin resistant Staphylococcus epidermidis 19-1; format: functional
[31] = tested on: Staphylococcus epidermidis; experiment: Antibacterial activity against methicillin resistant Staphylococcus epidermidis 19-2; format: functional
[32] = tested on: Enterococcus faecium; experiment: Antibacterial activity against Vanomycin-resistant Enterococcus faecium ATCC 51559; format: functional
[33] = tested on: Enterococcus faecalis; experiment: Antibacterial activity against Vanomycin-resistant Enterococcus faecalis ATCC 51299; format: functional
[34] = tested on: Staphylococcus aureus; experiment: Antibacterial activity against methicillin sensitive Staphylococcus aureus ATCC 29213; format: functional

Row | SMILES | MBC [1] [µM] | MIC [2] [µM] | MIC [3] [µM] | MIC [4] [µM] | Ratio [5] | Ratio [6] | MIC [7] [µM] | Ratio [8] | IC50 [9] [µM] | MBC [10] [µM] | IC50 [11] [µM] | MIC [12] [µM] | MBC [13] [µM] | Ratio [14] | MIC [15] [µM] | MIC [16] [µM] | MIC [17] [µM] | Ratio [18] | MBC [19] [µM] | MBC [20] [µM] | further results
1 | O=C(Nc1ccc(OC(F)(F)F)cc1)Nc1ccc(Cl)c(C(F)(F)F)c1 | > 161 | 0.15 (≈ 0.0598 µg/mL) | 1.25 (≈ 0.498 µg/mL) | 1.25 (≈ 0.498 µg/mL) | >128 | >32 | 1.25 (≈ 0.498 µg/mL) | >255 | 9.31 | > 321 | 6.27 | 1.25 (≈ 0.498 µg/mL) | > 161 | >257 | 2.51 (≈ 1 µg/mL) | 0.3 (≈ 0.12 µg/mL) | 2.51 (≈ 1 µg/mL) | >255 | > 321 | > 161 | MIC [21]: 0.63 µM (≈ 0.251 µg/mL); MIC [22]: 1.25 µM (≈ 0.498 µg/mL); MIC [23]: 2.51 µM (≈ 1 µg/mL); MIC [24]: 0.63 µM (≈ 0.251 µg/mL); MIC [25]: 0.63 µM (≈ 0.251 µg/mL); MIC [26]: 0.63 µM (≈ 0.251 µg/mL); MBC [27]: > 80.3 µM; Ratio [28]: >128; MIC [29]: 1.25 µM (≈ 0.498 µg/mL); MIC [30]: 1.25 µM (≈ 0.498 µg/mL); MIC [31]: 1.25 µM (≈ 0.498 µg/mL); MIC [32]: 2.51 µM (≈ 1 µg/mL); MIC [33]: 2.51 µM (≈ 1 µg/mL); MIC [34]: 0.63 µM (≈ 0.251 µg/mL)
2 | O=C(Nc1ccc(Cl)c(C(F)(F)F)c1)Nc1cc(F)c(F)c(F)c1F | 10.3 (≈ 4 µg/mL) | 0.31 (≈ 0.12 µg/mL) | 0.31 (≈ 0.12 µg/mL) | 0.31 (≈ 0.12 µg/mL) | 33 | 16 | 0.65 (≈ 0.251 µg/mL) | 33 | 8.9 | > 82.8 | 7.09 | 0.31 (≈ 0.12 µg/mL) | 10.3 (≈ 4 µg/mL) | >32 | 0.65 (≈ 0.251 µg/mL) | 0.31 (≈ 0.12 µg/mL) | 1.29 (≈ 0.499 µg/mL) | 33 | > 82.8 | 10.3 (≈ 4 µg/mL) | MIC [21]: 0.31 µM (≈ 0.12 µg/mL); MIC [22]: 1.29 µM (≈ 0.499 µg/mL); MIC [23]: 5.17 µM (≈ 2 µg/mL); MIC [24]: 0.31 µM (≈ 0.12 µg/mL); MIC [25]: 0.31 µM (≈ 0.12 µg/mL); MIC [26]: 0.31 µM (≈ 0.12 µg/mL); MBC [27]: 10.3 µM (≈ 4 µg/mL); Ratio [28]: >32; MIC [29]: 0.65 µM (≈ 0.251 µg/mL); MIC [30]: 0.31 µM (≈ 0.12 µg/mL); MIC [31]: 0.65 µM (≈ 0.251 µg/mL); MIC [32]: 1.29 µM (≈ 0.499 µg/mL); MIC [33]: 2.59 µM (≈ 1 µg/mL); MIC [34]: 0.31 µM (≈ 0.12 µg/mL)
3 | O=C(Nc1ccc(Cl)cc1)Nc1ccc(Cl)c(C(F)(F)F)c1 [CLOFLUCARBAN] | > 45.8 | 0.34 (≈ 0.119 µg/mL) | 0.34 (≈ 0.119 µg/mL) | 0.72 (≈ 0.251 µg/mL) | >135 | >32 | 1.43 (≈ 0.499 µg/mL) | >64 | 4.5 | > 183 | 7.7 | 0.34 (≈ 0.119 µg/mL) | > 45.8 | >64 | 0.72 (≈ 0.251 µg/mL) | 0.34 (≈ 0.119 µg/mL) | 2.86 (≈ 0.999 µg/mL) | >32 | > 91.7 | > 22.9 | MIC [21]: 0.72 µM (≈ 0.251 µg/mL); MIC [22]: 1.43 µM (≈ 0.499 µg/mL); MIC [23]: 2.86 µM (≈ 0.999 µg/mL); MIC [24]: 0.72 µM (≈ 0.251 µg/mL); MIC [25]: 0.72 µM (≈ 0.251 µg/mL); MIC [26]: 0.72 µM (≈ 0.251 µg/mL); MBC [27]: > 22.9 µM; Ratio [28]: >128; MIC [29]: 0.72 µM (≈ 0.251 µg/mL); MIC [30]: 0.72 µM (≈ 0.251 µg/mL); MIC [31]: 0.72 µM (≈ 0.251 µg/mL); MIC [32]: 1.43 µM (≈ 0.499 µg/mL); MIC [33]: 1.43 µM (≈ 0.499 µg/mL); MIC [34]: 0.34 µM (≈ 0.119 µg/mL)
